For the compound `O=[N+]([O-])c1ccccc1CC(=NO)NCc1ncc(C(F)(F)F)cc1Cl`, the melting point fell in the range of 122 to 126 °C.

On to `CC(C#N)(NC(=O)c1c(Cl)cccc1Cl)c1ncc(C(F)(F)F)cc1Cl` (centres unmarked) [Compound 110, N-[1-(3-Chloro-5-trifluoromethyl-2-pyridyl)-1-cyanoethyl]-2,6-dichlorobenzamide], for which the melting point was 166 °C.

A word on the melting point: it is the temperature of the solid-liquid transition.

The values above are taken from patent US6630495B1, “Fungicides” (priority 1999, dated 2003).
